Here are results for one substance from patent US11077126B2 (priority 2017, dated 2021).

Like-named read-outs stand apart in the source and are kept apart here.

The data set has as its system mouse bone marrow polychromatic erythrocytes. As to conditions: mouse, in vivo; for Number of Micronuclei / P/N / P/N Ratio: po. As to the method:
It is the object to test the mutagenic potential of drugs on mammalian somatic cells, and provide a basis for clinical drug use.
An appropriate amount of 0.5% sodium carboxymethyl cellulose solution was added to prepare a suspension, and the suspension was stored in a refrigerator at 4° C. The negative control was an equal amount of 0.5% sodium carboxymethylcellulose solution. The positive control was prepared as follows: an appropriate amount of cyclophosphamide used for injection was weighed, and was dissolved in normal saline at the time of use to prepare 60 mg/kg of solution.
6 mice per group. The doses, number of administrations, and bone marrow sampling time are selected in the pre-test.
The dose is reduced by ½ LD50 as the standard, and the number of administrations is one time. According to the pre-test results, the bone marrow sampling time is to sample 24 hours after administration.
At least three dose groups, respectively: 2,000 mg/kg, 1,000 mg/kg, 500 mg/kg
The number of administrations: one-time oral administration.
Oral (Intragastric) administration.
2.4.3 Bone marrow sampling time: 24 hours after administration.
The mice were sacrificed by cervical dislocation. Then the sternums were taken to remove the muscles thereon and the attachments were wiped with a gauze. Direct smear of bone marrow was used: the sternums were cut to expose the medullary cavity, and bone marrow was extruded and mixed well with a drop of calf serum on a slide beforehand as a push piece. After being dried, the slide was fixed in methanol for 10 minutes, and then after it was dried, it was then subjected to Giemsa staining. Each mouse was microscopically examined for about 1,000 polychromatic erythrocytes with intact contours of erythrocytes, and the frequency of occurrence of micronuclei and the ratio of polychromatic erythrocytes to erythrocytes were counted.

Take Carrimycin: the “conclusion of micronucleus test: chromosomal cleavage” value is “is not a chromosomal cleavage agent”, the “conclusion of micronucleus test: effect on the bone marrow” value is recorded as “no inhibitory effect on the bone marrow” and the “micronucleus rate of polychromatic erythrocytes compared with the negative control group” value is “do not have significant increase”. Besides, for the setting “500 mg/kg”, the “Number of Micronuclei” value worked out at 18, the P/N is 0.34 and the “P/N Ratio” value is 0.34. Further, under “1000 mg/kg”, the “Number of Micronuclei” value is recorded as 16, the P/N is listed as 0.33 and the “P/N Ratio” value was 0.33. In addition, under “2000 mg/kg”, the “Number of Micronuclei” value came to 21, the P/N was 0.38 and the “P/N Ratio” value came out at 0.38.
